# Measurements: patent US20200407717A1, “METHODS OF MODULATING ANTISENSE ACTIVITY” (Ionis Pharmaceuticals, Inc., priority 2018, published 2020)
# e = 2'-O-(2-methoxyethyl) (MOE); d = 2'-deoxy (DNA)
# Tested on: Drosha mRNA
# Test: Antisense activity by RT-qPCR, Drosha, A431 cells
# Type: cell-based, Human
# Procedure: A431 cells were grown at 10,000 cells per well and pre-treated with a variety of growth factors to determine if the addition of exogenous growth factors affects antisense activity or uptake of modified antisense oligonucleotides in a cell. The growth factors used were EGF, insulin growth factor (IGF), transforming growth factor (TGF), […] (VEGF), hepatocyte growth factor (HGF), platelet growth factor (PGF) and fibroblasts growth factor (FGF). To test antisense activity, cells were treated for 4 hours with a growth factor or vehicle alone, and then treated with compound no. 25690 (complementary to Drosha), compound no. 395254 (complementary to Malat1), or vehicle alone. RNA was isolated from the cells and Drosha or Malat1 RNA levels were measured by RT-qPCR. Human primer probe set 13816 (forward sequence […], designated herein as SEQ ID NO: 3; reverse sequence […], designated herein as SEQ ID NO: 4; probe sequence […], designated herein as SEQ ID NO: 5) was used to measure Drosha mRNA levels and primer probe set RTS2736 (forward sequence […], designated herein as SEQ ID NO: 6; reverse sequence […], designated herein as SEQ ID NO: 7; probe sequence TGCCACATCGCCACCCCGT, designated herein as SEQ ID NO: 8) was used to measure Malat1 RNA levels. Drosha and Malat1 RNA levels were normalized to total RNA content, as measured by RIBOGREEN®. Results are presented in the tables below as normalized RNA levels, relative to untreated control cells.
# A431 cells were treated with EGF or TGF at 200 ng/mL in the presence or absence of 1 μM of the EGFR tyrosine kinase inhibitor PD174265. The cells were then treated with compound no. 25690 or compound no. 395254 as in Example 8. Total RNA was isolated and analyzed by RT-qPCR, as in Example 8.
# Following siRNA treatment, cells were treated with compound no. 25690 or compound no. 395254 in the presence or absence of EGF. 16 hours after treatment with a PS-ASO with or without EGF, cells were harvested, and RNA levels were analyzed via RT-qPCR as in Example 8.
sequence,measurement,setting,value
"AGGAAGGAAGCTGGCGATCT (sugars from the 5' end e5 d10 e5, all phosphorothioate, methylation of C not given here) [compound 25690]",Drosha mRNA (% Control),"19.5 nM, Control",100.0 % Control
same,Drosha mRNA (% Control),"19.5 nM, EGF",100.0 % Control
same,Drosha mRNA (% Control),"19.5 nM, TGF",100.0 % Control
same,Drosha mRNA (% Control),"39 nM, Control",104.3 % Control
same,Drosha mRNA (% Control),"39 nM, EGF",98.0 % Control
same,Drosha mRNA (% Control),"39 nM, TGF",95.1 % Control
same,Drosha mRNA (% Control),"78 nM, Control",100.3 % Control
same,Drosha mRNA (% Control),"78 nM, EGF",98.0 % Control
same,Drosha mRNA (% Control),"78 nM, TGF",80.2 % Control
same,Drosha mRNA (% Control),"97.7 nM, Control",100.0 % Control
same,Drosha mRNA (% Control),"97.7 nM, Control Luciferase siRNA",100.0 % Control
same,Drosha mRNA (% Control),"97.7 nM, Control Luciferase siRNA, Table 26",100.0 % Control
same,Drosha mRNA (% Control),"97.7 nM, Control luciferase + EGF",100.0 % Control
same,Drosha mRNA (% Control),"97.7 nM, Control, Table 20",100.0 % Control
same,Drosha mRNA (% Control),"97.7 nM, EGF",100.0 % Control
same,Drosha mRNA (% Control),"97.7 nM, EGF+PD174265",100.0 % Control
same,Drosha mRNA (% Control),"97.7 nM, EGFR siRNA-1",100.0 % Control
same,Drosha mRNA (% Control),"97.7 nM, EGFR siRNA-2",100.0 % Control
same,Drosha mRNA (% Control),"97.7 nM, EGFR siRNA-2 + EGF",100.0 % Control
same,Drosha mRNA (% Control),"97.7 nM, EGFR siRNA-2, Table 26",100.0 % Control
same,Drosha mRNA (% Control),"97.7 nM, TGF",100.0 % Control
same,Drosha mRNA (% Control),"97.7 nM, TGF+PD174265",100.0 % Control
same,Drosha mRNA (% Control),"156.25 nM, Control",103.8 % Control
same,Drosha mRNA (% Control),"156.25 nM, EGF",70.7 % Control
same,Drosha mRNA (% Control),"156.25 nM, TGF",64.6 % Control
same,Drosha mRNA (% Control),"195 nM, Control",110.0 % Control
same,Drosha mRNA (% Control),"195 nM, Control Luciferase siRNA",81.4 % Control
same,Drosha mRNA (% Control),"195 nM, Control Luciferase siRNA, Table 26",99.2 % Control
same,Drosha mRNA (% Control),"195 nM, Control luciferase + EGF",110.2 % Control
same,Drosha mRNA (% Control),"195 nM, Control, Table 20",110.0 % Control
same,Drosha mRNA (% Control),"195 nM, EGF",98.2 % Control
same,Drosha mRNA (% Control),"195 nM, EGF+PD174265",102.4 % Control
same,Drosha mRNA (% Control),"195 nM, EGFR siRNA-1",103.0 % Control
same,Drosha mRNA (% Control),"195 nM, EGFR siRNA-2",88.0 % Control
same,Drosha mRNA (% Control),"195 nM, EGFR siRNA-2 + EGF",107.2 % Control
same,Drosha mRNA (% Control),"195 nM, EGFR siRNA-2, Table 26",105.2 % Control
same,Drosha mRNA (% Control),"195 nM, TGF",95.2 % Control
same,Drosha mRNA (% Control),"195 nM, TGF+PD174265",108.0 % Control
same,Drosha mRNA (% Control),"312.5 nM, Control",92.7 % Control
same,Drosha mRNA (% Control),"312.5 nM, EGF",72.8 % Control
same,Drosha mRNA (% Control),"312.5 nM, TGF",61.1 % Control
same,Drosha mRNA (% Control),"391 nM, Control",99.7 % Control
same,Drosha mRNA (% Control),"391 nM, Control Luciferase siRNA",67.0 % Control
same,Drosha mRNA (% Control),"391 nM, Control Luciferase siRNA, Table 26",100.0 % Control
same,Drosha mRNA (% Control),"391 nM, Control luciferase + EGF",100.0 % Control
same,Drosha mRNA (% Control),"391 nM, Control, Table 20",99.3 % Control
same,Drosha mRNA (% Control),"391 nM, EGF",89.4 % Control
same,Drosha mRNA (% Control),"391 nM, EGF+PD174265",103.3 % Control
same,Drosha mRNA (% Control),"391 nM, EGFR siRNA-1",78.9 % Control
same,Drosha mRNA (% Control),"391 nM, EGFR siRNA-2",83.1 % Control
same,Drosha mRNA (% Control),"391 nM, EGFR siRNA-2, Table 26",100.0 % Control
same,Drosha mRNA (% Control),"391 nM, TGF",85.2 % Control
same,Drosha mRNA (% Control),"391 nM, TGF+PD174265",91.2 % Control
same,Drosha mRNA (% Control),"625 nM, Control",90.9 % Control
same,Drosha mRNA (% Control),"625 nM, EGF",57.2 % Control
same,Drosha mRNA (% Control),"625 nM, TGF",50.8 % Control
same,Drosha mRNA (% Control),"781 nM, Control",88.4 % Control
same,Drosha mRNA (% Control),"781 nM, Control Luciferase siRNA",56.6 % Control
same,Drosha mRNA (% Control),"781 nM, Control Luciferase siRNA, Table 26",77.5 % Control
same,Drosha mRNA (% Control),"781 nM, Control luciferase + EGF",60.8 % Control
same,Drosha mRNA (% Control),"781 nM, Control, Table 20",87.2 % Control
same,Drosha mRNA (% Control),"781 nM, EGF",81.4 % Control
same,Drosha mRNA (% Control),"781 nM, EGF+PD174265",83.6 % Control
same,Drosha mRNA (% Control),"781 nM, EGFR siRNA-1",62.3 % Control
same,Drosha mRNA (% Control),"781 nM, EGFR siRNA-2",64.8 % Control
same,Drosha mRNA (% Control),"781 nM, EGFR siRNA-2 + EGF",98.4 % Control
same,Drosha mRNA (% Control),"781 nM, EGFR siRNA-2, Table 26",89.8 % Control
same,Drosha mRNA (% Control),"781 nM, TGF",67.2 % Control
same,Drosha mRNA (% Control),"781 nM, TGF+PD174265",87.2 % Control
same,Drosha mRNA (% Control),"1250 nM, Control",75.7 % Control
same,Drosha mRNA (% Control),"1250 nM, EGF",52.8 % Control
same,Drosha mRNA (% Control),"1250 nM, TGF",43.4 % Control
same,Drosha mRNA (% Control),"1563 nM, Control",83.2 % Control
same,Drosha mRNA (% Control),"1563 nM, Control Luciferase siRNA",49.2 % Control
same,Drosha mRNA (% Control),"1563 nM, Control Luciferase siRNA, Table 26",70.2 % Control
same,Drosha mRNA (% Control),"1563 nM, Control luciferase + EGF",57.6 % Control
same,Drosha mRNA (% Control),"1563 nM, Control, Table 20",76.3 % Control
same,Drosha mRNA (% Control),"1563 nM, EGF",74.7 % Control
same,Drosha mRNA (% Control),"1563 nM, EGF+PD174265",68.9 % Control
same,Drosha mRNA (% Control),"1563 nM, EGFR siRNA-1",56.0 % Control
same,Drosha mRNA (% Control),"1563 nM, EGFR siRNA-2",61.4 % Control
same,Drosha mRNA (% Control),"1563 nM, EGFR siRNA-2 + EGF",79.4 % Control
same,Drosha mRNA (% Control),"1563 nM, EGFR siRNA-2, Table 26",80.3 % Control
same,Drosha mRNA (% Control),"1563 nM, TGF",65.9 % Control
same,Drosha mRNA (% Control),"1563 nM, TGF+PD174265",78.7 % Control
same,Drosha mRNA (% Control),"2500 nM, Control",63.6 % Control
same,Drosha mRNA (% Control),"2500 nM, EGF",42.8 % Control
same,Drosha mRNA (% Control),"2500 nM, TGF",40.1 % Control
same,Drosha mRNA (% Control),"3125 nM, Control",66.6 % Control
same,Drosha mRNA (% Control),"3125 nM, Control Luciferase siRNA",40.7 % Control
same,Drosha mRNA (% Control),"3125 nM, Control Luciferase siRNA, Table 26",61.6 % Control
same,Drosha mRNA (% Control),"3125 nM, Control luciferase + EGF",40.8 % Control
same,Drosha mRNA (% Control),"3125 nM, Control, Table 20",67.2 % Control
same,Drosha mRNA (% Control),"3125 nM, EGF",55.9 % Control
same,Drosha mRNA (% Control),"3125 nM, EGF+PD174265",62.7 % Control
same,Drosha mRNA (% Control),"3125 nM, EGFR siRNA-1",51.4 % Control
same,Drosha mRNA (% Control),"3125 nM, EGFR siRNA-2",54.6 % Control
same,Drosha mRNA (% Control),"3125 nM, EGFR siRNA-2 + EGF",75.4 % Control
same,Drosha mRNA (% Control),"3125 nM, EGFR siRNA-2, Table 26",70.6 % Control
same,Drosha mRNA (% Control),"3125 nM, TGF",47.2 % Control
same,Drosha mRNA (% Control),"3125 nM, TGF+PD174265",64.2 % Control
same,Drosha mRNA (% Control),"5000 nM, Control",47.6 % Control
same,Drosha mRNA (% Control),"5000 nM, EGF",33.0 % Control
same,Drosha mRNA (% Control),"5000 nM, TGF",31.9 % Control
